Measured values: patent publication US20210116454A1, “METHODS FOR TREATING A HEMATOLOGICAL CANCER AND THE USE OF COMPANION BIOMARKERS FOR 2-(2,6-DIOXOPIPERIDIN-3-YL)-4-((2-FLUORO-4-((3-MORPHOLINOAZETIDIN-1-YL)METHYL)BENZYL)AMINO)ISOINDOLINE-1,3-DIONE” (CELGENE CORPORATION, priority 2019, published 2021)
Where two headings read alike, the source gives them in different places.

Columns and labels:
Format in all cases: cell-based
Pfeiffer = assay: 5-day viable cell number and apoptosis (7-AAD exclusion/Annexin V flow cytometry); conditions: Pfeiffer cells, 5 days
Excerpt: (§1) The DLBCL panel includes seven cell lines classified as activated B-cell (ABC) subtype, thirteen cell lines classified as the germinal center B-cell (GCB) subtype, and three cell lines classified as primary mediastinal B-cell lymphoma (PMBL). […] The translocation of MYC, BCL6, or BCL2 to an IG locus usually leads to high levels of mRNA and protein due to the active transcription driven by a constitutively active IG promoter. […] Expressions of CRBN protein and known substrates, Ikaros, Aiolos, and ZFP91 were also evaluated (FIG. 1, panels B and C).
(§2) The panel of cell lines were treated with increasing doses of compounds for five days, at which time the number of viable cells was measured and the amount of apoptosis was determined by 7-AAD exclusion and Annexin V staining using flow cytometry.

SU-DHL-4 = assay: as above
Excerpt: as §1, §2

DB = assay: as above; conditions: DB cells, 5 days
Excerpt: as §1, §2

KARPAS-1106P = assay: as above
Excerpt: as §1, §2

KARPAS-422 = assay: as above
Excerpt: as §1, §2

SU-DHL-10 = assay: as above
Excerpt: as §1, §2

OCI-LY-19 = assay: as above; conditions: OCI-LY-19 cells, 5 days
Excerpt: as §1, §2

RIVA = assay: as above
Excerpt: as §1, §2

DLBCL cell lines = assay: Panel of twenty three DLBCL cell lines, 5-day viable cells and apoptosis
Procedure: Compound 1 activity was evaluated in a panel of twenty three DLBCL cell lines. The DLBCL panel includes seven cell lines classified as activated B-cell (ABC) subtype, thirteen cell lines classified as the germinal center B-cell (GCB) subtype, and three cell lines classified as primary mediastinal B-cell lymphoma (PMBL). […] Thus, eleven cell lines have a t(8;14)(q24;q32) and/or t(14;18)(q32;q21.3), corresponding to MYC and BCL2 gene rearrangements into an immunoglobulin (IG) heavy chain locus as well as additional rearrangements affecting BCL6 (Table 1). The translocation of MYC, BCL6, or BCL2 to an IG locus usually leads to high levels of mRNA and protein due to the active transcription driven by a constitutively active IG promoter. Therefore, the protein levels of these genes were monitored by Western blots, confirming the overexpression of BCL2, MYC, and/or BCL6 in all the cell lines evaluated (FIG. 1, panel A). Expressions of CRBN protein and known substrates, Ikaros, Aiolos, and ZFP91 were also evaluated (FIG. 1, panels B and C).
as §2, with “cytometry. […] Overall, the sensitivity to Compound 1 was independent of cell of origin (COO), since ABC, GCB, and PMBL subtypes were sensitive to Compound 1 (Table 2).” for “cytometry.”

[1] = Homo sapiens, 120 h, SU-DHL-4 cells, 5 days
[2] = Homo sapiens, 120 h, KARPAS-1106P cells, 5 days
[3] = Homo sapiens, 120 h, KARPAS-422 cells, 5 days
[4] = Homo sapiens, SU-DHL10, 120 h, SU-DHL-10 cells, 5 days

SMILES: O=C1CC[C@H](N2C(=O)c3cccc(NCc4ccc(CN5CC(N6CCOCC6)C5)cc4F)c3C2=O)C(=O)N1 [Compound 1, (S)-2-(2,6-dioxopiperidin-3-yl)-4-((2-fluoro-4-((3-morpholinoazetidin-1-yl)methyl)benzyl)amino)isoindoline-1,3-dione]
- % Viable Cells AUC (Pfeiffer): 912.3
- % Viable Cells Emax (Pfeiffer): 86.19%
- % Viable Cells Sensitivity (Pfeiffer): Limited
- Apoptosis AUC (Pfeiffer): 133.5
- Apoptosis Sensitivity (Pfeiffer): Limited
- EC50 (SU-DHL-4; [1]): 0.452 µM
- Emax (SU-DHL-4; [1]): 18.9%
- IC50 (SU-DHL-4; Homo sapiens, 120 h, SU-DHL-4 cells, 5 days, read-out: % Viable Cells IC50): 0.5 µM
- IC50 (SU-DHL-4; Homo sapiens, SU-DHL-4 cells (Table 3), read-out: IC50): 457 µM
- % Viable Cells AUC (SU-DHL-4; SU-DHL-4 cells, 5 days): 457.4
- % Viable Cells Emax (SU-DHL-4; SU-DHL-4 cells, 5 days): 41.79%
- % Viable Cells Sensitivity (SU-DHL-4; SU-DHL-4 cells, 5 days): Intermediate (intermediate sensitivity with 15% to 55% cell viability)
- Apoptosis AUC (SU-DHL-4; SU-DHL-4 cells, 5 days): 155.2
- Apoptosis Sensitivity (SU-DHL-4; SU-DHL-4 cells, 5 days): Intermediate
- % Viable Cells AUC (DB): 1173
- % Viable Cells Emax (DB): 107.1%
- % Viable Cells Sensitivity (DB): Limited
- Apoptosis AUC (DB): 0
- Apoptosis Sensitivity (DB): Limited
- EC50 (KARPAS-1106P; [2]): 0.0561 µM
- Emax (KARPAS-1106P; [2]): 59.8%
- IC50 (KARPAS-1106P; Homo sapiens, 120 h, KARPAS-1106P cells, 5 days, read-out: % Viable Cells IC50): 0.025 µM
- IC50 (KARPAS-1106P; Homo sapiens, KARPAS-1106P cells (Table 3), read-out: IC50): 111 µM
- % Viable Cells AUC (KARPAS-1106P; KARPAS-1106P cells, 5 days): 110.9
- % Viable Cells Emax (KARPAS-1106P; KARPAS-1106P cells, 5 days): 1.183%
- % Viable Cells Sensitivity (KARPAS-1106P; KARPAS-1106P cells, 5 days): High (highly sensitive to Compound 1 with less than 6% viable cells remaining (Emax) after treatment)
- Apoptosis AUC (KARPAS-1106P; KARPAS-1106P cells, 5 days): 597.7
- Apoptosis Sensitivity (KARPAS-1106P; KARPAS-1106P cells, 5 days): High
- EC50 (KARPAS-422; [3]): 0.0325 µM
- Emax (KARPAS-422; [3]): 70.5%
- IC50 (KARPAS-422; Homo sapiens, 120 h, KARPAS-422 cells, 5 days, read-out: % Viable Cells IC50): 0.0054 µM
- IC50 (KARPAS-422; Homo sapiens, KARPAS-422 cells (Table 3), read-out: IC50): 45 µM
- % Viable Cells AUC (KARPAS-422; KARPAS-422 cells, 5 days): 45.21
- % Viable Cells Emax (KARPAS-422; KARPAS-422 cells, 5 days): 1.584%
- % Viable Cells Sensitivity (KARPAS-422; KARPAS-422 cells, 5 days): High (highly sensitive to Compound 1 with less than 6% viable cells remaining (Emax) after treatment)
- Apoptosis AUC (KARPAS-422; KARPAS-422 cells, 5 days): 682.2
- Apoptosis Sensitivity (KARPAS-422; KARPAS-422 cells, 5 days): High
- EC50 (SU-DHL-10; [4]): 0.0163 µM
- Emax (SU-DHL-10; [4]): 81.9%
- IC50 (SU-DHL-10; Homo sapiens, SU-DHL10, 120 h, SU-DHL-10 cells, 5 days, read-out: % Viable Cells IC50): 0.01 µM
- IC50 (SU-DHL-10; Homo sapiens, SU-DHL10, SU-DHL-10 cells (Table 3), read-out: IC50): 3.4 µM
- % Viable Cells AUC (SU-DHL-10; SU-DHL-10 cells, 5 days): 3.371
- % Viable Cells Emax (SU-DHL-10; SU-DHL-10 cells, 5 days): 2.477%
- % Viable Cells Sensitivity (SU-DHL-10; SU-DHL-10 cells, 5 days): High (highly sensitive to Compound 1 with less than 6% viable cells remaining (Emax) after treatment)
- Apoptosis AUC (SU-DHL-10; SU-DHL-10 cells, 5 days): 815.3
- Apoptosis Sensitivity (SU-DHL-10; SU-DHL-10 cells, 5 days): High
- EC50 (OCI-LY-19; Homo sapiens, OCI-LY19, 120 h): 0.0809 µM
- Emax (OCI-LY-19; Homo sapiens, OCI-LY19, 120 h): 30.6%
- IC50 (OCI-LY-19; Homo sapiens, OCI-LY19, 120 h, read-out: % Viable Cells IC50): 0.03 µM
- % Viable Cells AUC (OCI-LY-19): 283.3
- % Viable Cells Emax (OCI-LY-19): 28.11%
- % Viable Cells Sensitivity (OCI-LY-19): Intermediate (intermediate sensitivity with 15% to 55% cell viability)
- Apoptosis AUC (OCI-LY-19): 293.5
- Apoptosis Sensitivity (OCI-LY-19): Intermediate
- EC50 (RIVA; 120 h, RIVA cells, 5 days): 0.019 µM
- Emax (RIVA; 120 h, RIVA cells, 5 days): 22.7%
- IC50 (RIVA; 120 h, RIVA cells, 5 days, read-out: % Viable Cells IC50): 0.05 µM
- IC50 (RIVA; RIVA cells (Table 3), read-out: IC50): 396 µM
- % Viable Cells AUC (RIVA; RIVA cells, 5 days): 395.8
- % Viable Cells Emax (RIVA; RIVA cells, 5 days): 36.99%
- % Viable Cells Sensitivity (RIVA; RIVA cells, 5 days): Intermediate (intermediate sensitivity with 15% to 55% cell viability)
- Apoptosis AUC (RIVA; RIVA cells, 5 days): 216.6
- Apoptosis Sensitivity (RIVA; RIVA cells, 5 days): Intermediate
- IC50 (DLBCL cell lines; 120 h, eighteen of the twenty three lines, five days of treatment): 0.001 to 0.4 µM
- viable cells remaining (Emax) (DLBCL cell lines; ten highly sensitive cell lines): less than 6%
